Measured values taken from patent US11998551B2, “Treatment of mitochondrial diseases” (FUNDACIÓ HOSPITAL UNIVERSITARI VALL D'HEBRON-INSTITUT DE …, priority 2015, dated 2024).

System: quiescent fibroblasts from healthy controls
Test: mtDNA copy number (quantitative PCR) after EtBr-forced depletion in quiescent fibroblasts from healthy controls
Assay type: cell-based, human
Conditions: control cells, 14 days exposure to 5 ng/ml EtBr
Description: Primary cultured fibroblasts were obtained from skin biopsies of patients 1-3 and 4 healthy donors. All subjects gave informed consent in accordance with our Institutional Review Boards and the Declaration of Helsinki.
Cells were seeded in 6-well plates of 9.5 cm^2 in Dulbecco's modified Eagle's medium (DMEM) with 4.5 g/L glucose, supplemented with 2 mM L-glutamine, 100 U/ml penicillin and streptomycin, and 10% dialyzed Fetal Bovine Serum (FBS) (Invitrogen) in a humidified incubator at 37° C. and 5% CO2. After tight confluence was reached, FBS was reduced to 0.1% to induce quiescence and simultaneous treatment with 5 ng/ml of EtBr (ethidium bromide, Merck) was initiated (day 0, t0). Cell media was replaced with the same treatment every 2-3 days for two weeks. At day 14 (t14) EtBr was withdrawn from cell media and the treatment of a set of all cells was initiated with 200 μM of all four deoxynucleosides (dNs): dAdo (deoxyadenosine, Sigma), dCtd (deoxycytidine, Sigma), dGuo (deoxyguanosine, Sigma), dThd (deoxythymidine, Sigma) and 5 μM EHNA (Sigma). A set of cells was left untreated and all parameters were monitored in parallel. Cell media was replaced with the same treatment every 2-3 days for 12 additional days. At days 16 or 17 media were collected and stored at −20° C. until further use. […]
mtDNA copy number was assessed by quantitative PCR as previously described. […]

CC[n+]1c(-c2ccccc2)c2cc(N)ccc2c2ccc(N)cc21 [EtBr, ethidium bromide]
averaged percentage of mtDNA residual levels ± SE: 39.68±6.6%
